Data set [1] relates to HIV-1 wild-type (R8) virus. Put plainly: Viral KINetics in Green cells (VIKING) assay, HIV-1 replication in MT4-GFP reporter cells. The conditions noted are these: Human immunodeficiency virus 1, 10% normal human serum, MT4-GFP cells, HIV-1 wild-type (R8); read-out: Viking (10% NHS), IC50. Format: cell-based. An outline of the steps: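 Compounds in 3-fold, 10-point series (typical 4 μM-0.2 nM) in 10% normal human serum received MT4 GFP-reporter T cells pre-infected overnight with wild-type R8 virus (MOI ~0.01). Ratio of GFP-positive cells at 72 vs 48 h defined replication; IC50 from nonlinear 4-parameter dose-response fitting.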

Data set [2] is described as follows: Aqueous solubility in PBS, pH 7.4. Format: physicochemical. To be noted: phosphate buffered saline, pH 7.4, aqueous buffer, thermodynamic from solid, pH 7.4 phosphate buffered saline, 24 hours, amorphous or crystalline material; read-out: Aqu. Solubility. The method, then: Aqueous solubility of the compounds was determined by suspending excess solid (typically 0.3-0.5 mg) in PBS, pH 7.4, at a concentration of 0.5 mg/mL. The suspension was vortexed for 10-30 seconds to wet the material and stirred at 600 rpm for 24 hours. For analysis by UPLC, 150 μL aliquot sample was transferred into a […] PVDF spin filter and centrifuged at 14,000 rpm for 5 minutes. 100 μL of the filtrate was diluted with 100 μL 1:1 Acetonitrile (ACN):H2O. The resultant samples were analyzed using UPLC and quantified against a standard curve of the compound of interest dissolved in 1:1 ACN:H2O. The retains of the solids were checked by XRPD and PLM to determine if the phase of the material was crystalline or amorphous.

Structures are written as SMILES. Converted amounts (≈) assume the structure as drawn.

The text below walks through data of patent US20240287124A1, “PRODRUGS OF 4'-SUBSTITUTED NUCLEOSIDE REVERSE TRANSCRIPTASE INHIBITORS” (Merck Sharp & Dohme LLC, priority 2023, published 2024).

For `C#C[C@]1(COC(=O)Cc2ccc(F)cc2)O[C@@H](n2ccc3c(N)nc(Cl)nc32)C[C@@H]1OC(=O)Cc1ccc(F)cc1` [Example 29, (2R,3S,5R)-5-(4-amino-2-chloro-7H-pyrrolo[2,3-d]pyrimidin-7-yl)-2-ethynyl-2-((2-(4-fluorophenyl)acetoxy)methyl)tetrahydrofuran-3-yl 2-(4-fluorophenyl)acetate], in data set [1], the IC50 (usually the concentration that inhibits the measured activity by half) is 5.8 nM. Also, the solubility (in general, how much of the substance goes into solution per volume) at 24 h in data set [2] is under 1 µg/mL.

`C#C[C@]1(CO)O[C@@H](n2ccc3c(N)nc(Cl)nc32)C[C@@H]1OC(=O)CCC12CC3CC(CC(C3)C1)C2` [Example 30]: the IC50 in data set [1] is 3.6 nM. In addition, the solubility at 24 h in data set [2] is under 1 µg/mL.

On to `C#C[C@]1(CO)O[C@@H](n2ccc3c(N)nc(Cl)nc32)C[C@@H]1OC(=O)Cc1ccc(F)cc1` [Example 31, (2R,3S,5R)-5-(4-amino-2-chloro-7H-pyrrolo[2,3-d]pyrimidin-7-yl)-2-ethynyl-2-(hydroxymethyl)tetrahydrofuran-3-yl 2-(4-fluorophenyl)acetate], for which the IC50 in data set [1] was found to be 4.6 nM. Further, the solubility at 24 h in data set [2] worked out at 11 µg/mL (≈ 24.7 µM).

Take `C#C[C@]1(CO)O[C@@H](n2ccc3c(N)nc(Cl)nc32)C[C@@H]1OC(=O)Cc1ccc(Cl)cc1` [Example 32, (2R,3S,5R)-5-(4-amino-2-chloro-7H-pyrrolo[2,3-d]pyrimidin-7-yl)-2-ethynyl-2-(hydroxymethyl)tetrahydrofuran-3-yl 2-(4-chlorophenyl)acetate]: the IC50 in data set [1] came out at 5.1 nM. The solubility at 24 h in data set [2] is 3.7 µg/mL (≈ 8.02 µM).

With `C#C[C@]1(COC(=O)Cc2ccc(Cl)cc2)O[C@@H](n2ccc3c(N)nc(Cl)nc32)C[C@@H]1O` [Example 33, ((2R,3S,5R)-5-(4-amino-2-chloro-7H-pyrrolo[2,3-d]pyrimidin-7-yl)-2-ethynyl-3-hydroxytetrahydrofuran-2-yl)methyl 2-(4-chlorophenyl)acetate], the IC50 in data set [1] came out at 2.4 nM. Also, the solubility at 24 h in data set [2] turned out to be 41 µg/mL (≈ 88.9 µM).

As to `C#C[C@]1(COC(=O)Cc2ccc(Cl)cc2)O[C@@H](n2ccc3c(N)nc(Cl)nc32)C[C@@H]1OC(=O)Cc1ccc(Cl)cc1` [Example 34, (2R,3S,5R)-5-(4-amino-2-chloro-7H-pyrrolo[2,3-d]pyrimidin-7-yl)-2-((2-(4-chlorophenyl)acetoxy)methyl)-2-ethynyltetrahydrofuran-3-yl 2-(4-chlorophenyl)acetate], the IC50 in data set [1] worked out at 6.1 nM. For the same molecule, the solubility at 24 h in data set [2] was under 1 µg/mL.

On to `C#C[C@]1(COC(=O)OCCC23CC4CC(CC(C4)C2)C3)O[C@@H](n2ccc3c(N)nc(Cl)nc32)C[C@@H]1O` [Example 35, 2-(adamantan-1-yl)ethyl (((2R,3S,5R)-5-(4-amino-2-chloro-7H-pyrrolo[2,3-d]pyrimidin-7-yl)-2-ethynyl-3-hydroxytetrahydrofuran-2-yl)methyl) carbonate], for which the IC50 in data set [1] is 6.2 nM. Besides, in data set [2], the solubility at 24 h was under 1 µg/mL.

As to `C#C[C@]1(CO)O[C@@H](n2ccc3c(N)nc(Cl)nc32)C[C@@H]1OC(=O)OCCC12CC3CC(CC(C3)C1)C2` [Example 36, 2-(adamantan-1-yl)ethyl ((2R,3S,5R)-5-(4-amino-2-chloro-7H-pyrrolo[2,3-d]pyrimidin-7-yl)-2-ethynyl-2-(hydroxymethyl)tetrahydrofuran-3-yl) carbonate], in data set [1], the 50% inhibitory concentration (IC50) turned out to be 5.5 nM. Also, in data set [2], the solubility at 24 h is under 1 µg/mL.

On to `C#C[C@]1(COC(=O)Cc2ccc(F)cc2)O[C@@H](n2ccc3c(N)nc(Cl)nc32)C[C@@H]1O` [Example 37, ((2R,3S,5R)-5-(4-amino-2-chloro-7H-pyrrolo[2,3-d]pyrimidin-7-yl)-2-ethynyl-3-hydroxytetrahydrofuran-2-yl)methyl 2-(4-fluorophenyl)acetate], for which the IC50 in data set [1] was 2.3 nM. Also, the solubility at 24 h in data set [2] was 118 µg/mL (≈ 265 µM).

As to `C#C[C@]1(CO)O[C@@H](n2ccc3c(N)nc(Cl)nc32)C[C@@H]1OC(=O)OCCCCCCCCC` [Example 38, (2R,3S,5R)-5-(4-amino-2-chloro-7H-pyrrolo[2,3-d]pyrimidin-7-yl)-2-ethynyl-2-(hydroxymethyl)tetrahydrofuran-3-yl nonyl carbonate], the IC50 in data set [1] was 8 nM. In addition, the solubility at 24 h in data set [2] is under 1 µg/mL.
